“Also recorded” adds a separate entry of the source.

Series [1] can be described thus: Storage at elevated temperature/humidity, analysed by XRPD. It is filed as physicochemical.
The target of series [2] is T1, estrogen receptor (ER) (Homo sapiens, UniProt P03372).
T1 sequence (P03372 1-595): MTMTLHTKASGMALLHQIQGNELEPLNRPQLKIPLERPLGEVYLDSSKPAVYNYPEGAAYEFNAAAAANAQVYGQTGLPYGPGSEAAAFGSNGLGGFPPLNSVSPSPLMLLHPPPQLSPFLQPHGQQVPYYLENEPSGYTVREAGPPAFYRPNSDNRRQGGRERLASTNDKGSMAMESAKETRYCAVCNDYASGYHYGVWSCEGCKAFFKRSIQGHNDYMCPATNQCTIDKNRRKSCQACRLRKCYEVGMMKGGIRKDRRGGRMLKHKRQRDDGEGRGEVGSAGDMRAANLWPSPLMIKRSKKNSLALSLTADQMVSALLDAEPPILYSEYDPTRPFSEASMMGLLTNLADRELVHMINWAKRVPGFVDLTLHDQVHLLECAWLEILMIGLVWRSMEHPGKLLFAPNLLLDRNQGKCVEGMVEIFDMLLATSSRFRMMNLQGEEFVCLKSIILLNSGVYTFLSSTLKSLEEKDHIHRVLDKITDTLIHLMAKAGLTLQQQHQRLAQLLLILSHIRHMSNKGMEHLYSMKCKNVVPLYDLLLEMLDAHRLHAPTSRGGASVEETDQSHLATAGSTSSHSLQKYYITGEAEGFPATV
The conditions noted are these: cited from earlier work.

The nature of series [3]: Storage at elevated temperature/humidity, analysed by XRPD. It is filed as physicochemical. The conditions noted are these: 1 week. On the procedure:
Samples 1 and 2 were characterized by XRPD at various conditions. XRPD patterns were collected for the samples at ambient condition as the samples were provided; at variable temperature (VT-XRPD); at variable humidity (VH-XRPD); after the samples were exposed to 40° C./75% RH for 1 week and 25° C./97% RH for 1 week, respectively; and after a GVS measurement wherein the samples were exposed to 0-90% RH. Samples 1 and 2 were also characterized by ^1H NMR, TGA, DSC, KF, IC, GVS (exposed to 0-90% RH), PLM, SEM, and HPLC (Table 5).

Series [4] in a line: Variable humidity XRPD (VH-XRPD). It is filed as physicochemical. On the procedure:
Samples run under non-ambient conditions were prepared by gently packing into a cavity, cut into a silicon wafer to obtain a flat surface and mounted onto a humidity stage with an Ansyco controller and humidity sensor positioned directly next to the sample holder. The data were collected at 298.15 K with water temperature of 35.0° C., in an angular range of 3 to 31° 2θ, with a step size of 0.025° 2θ, a collection time of 2.0 sec/step, and a collection time at each % RH was 41 min 28 sec. X-Ray Powder Diffraction (XRPD) patterns were collected at variable humidity values from 0 to 95% RH, based upon the humidity behavior of each compound observed during GVS experiments (described herein). For each Variable Humidity X-Ray Powder Diffraction (VH-XRPD) experiment performed, the % RH values selected are provided alongside the relevant experimental result. Full tables of detailing the % RH value at each collection point and the associated delay time at each value are provided in Tables 10-12. To fully characterize the polymorphic behavior of Samples 1 and 2 at variable humidity, and to collect reference XRPD patterns for the ‘pure’ anhydrous Form 1 and Form 2 material, and ‘pure’ hydrated Form 3 material, Variable Humidity (VH) XRPD experiments were conducted on Samples 1 and 2. Initially, VH-XRPD experiments were conducted using Sample 1, and XRPD diffractograms were collected at selected humidity values, in line with those collected during GVS experiments (see FIGS. 6E-6F). XRPD diffractograms were collected initially at ambient RH, then collected over 24 hours at ˜95% RH and finally collected during desorption steps to 0% RH and over 10 hours at 0% RH (see FIG. 4C). […]

The nature of series [5]: Gravimetric Vapour Sorption (GVS), with XRPD of the recovered sample. It is filed as physicochemical. Here is the method: Sorption isotherms were obtained using a SMS DVS Intrinsic moisture sorption analyzer, controlled by DVS Intrinsic Control software v1.0.1.2 (or v 1.0.1.3). The sample temperature was maintained at 25° C. by the instrument controls. The humidity was controlled by mixing streams of dry and wet nitrogen, with a total flow rate of 200 ml/min. The relative humidity was measured by a calibrated Rotronic probe (dynamic range of 1.0-100% RH), located near the sample. The weight change, (mass relaxation) of the sample as a function of % RH was constantly monitored by the microbalance (accuracy ±0.005 mg).
A sample (e.g., 20 mg) was placed in a tared mesh stainless steel basket under ambient conditions. The sample was loaded and unloaded at 40% RH and 25° C. (typical room conditions). A moisture sorption isotherm was performed as outlined below (2 scans giving 1 complete cycle). Standard isotherms were performed at 25° C. at 10% RH intervals over a 0-90% RH range. Data analysis was carried out using Microsoft Excel using DVS Analysis Suite v6.2 (or 6.1 or 6.0).
In a cycle of 2 scans, the first scan was performed with adsorption of 40-90% RH, followed by a second scan with desorption of 90-0% RH and adsorption of 0-40% RH, with intervals of 10% RH, at 25° C. with stability dm/dt of 0.002% ° C./min. The sorption time was 6 hr time out.
The sample was recovered after completion of the isotherm and re-analyzed by XRPD. Custom moisture sorption methods were also performed at 25° C. at fixed % RH intervals over a 0-95% RH range, with the purpose to fully understand the sorption/desorption behavior of the compound under elevated conditions.
To further explore the humidity behavior of Sample 1 (Form 1) upon exposure to high RH (>90%), custom GVS experiments were designed and carried out. Initially, the sample was treated by holding at 90 and then 95% RH for ˜12 hours to see if hydrate formation could be observed (HighRH method of Steps 1 and 2 of Table 2, FIGS. 6C-6D).
To test the stability of the hydrated state, GVS method HighRH_Desorp_3 was designed with a desorption step and subsequent adsorption (see Table 2 with steps 1-4, FIGS. 6E-6F).
Finally, to ensure complete conversion to the anhydrous and hydrated forms, a GVS experiment was designed to increase both the length of the desorption step at 0% RH, and the adsorption step at 95% RH, respectively (Table 3). Based on the weight stabilization observed in the kinetic plots for Sample 1 in HighRH and HighRH_Desorp_3 methods discussed above (FIGS. 6D and 6F), a holding time of 800 mins at 0% RH and 1600 mins at 95% RH were chosen. A double cycle was also recorded for this experiment to observe whether the sample would return to Form 1 or form a mixed anhydrous/hydrated species (see Table 3, FIGS. 6G-6H).

On to `CCNCCc1ccc(CN(CC)c2cc(OC)ccc2[C@@H]2CCc3cc(O)ccc3C2)cc1.Cl.Cl` [Lyophilization in water], for which, in series [1] (25° C./97% RH), the “XRPD post storage at 25° C./97% RH (10 days)” value is listed as “Consistent with Form 3”. Besides, in series [1] (40° C./75% RH), the “XRPD post storage at 40° C./75% RH (10 days)” value is given as “Consistent with Form 3”.

With `CCNCCc1ccc(CN(CC)c2cc(OC)ccc2[C@@H]2CCc3cc(O)ccc3C2)cc1` [RAD1901], the “Selectivity of binding to the estrogen receptor (ER)” value in series [2] is given as “good selectivity”.

`CCNCCc1ccc(CN(CC)c2cc(OC)ccc2[C@@H]2CCc3cc(O)ccc3C2)cc1.Cl.Cl` [Sample 2]: the “XRPD after storage at 25° C./97% RH for 1 week” value in series [3] (25° C./97% RH) was “Form 3 (FIGS. 5B and”. Further, the “XRPD after storage at 40° C./75% RH for 1 week” value in series [3] (40° C./75% RH) is reported as “Form 3 (FIG. 5B)”. Moreover, the “VH-XRPD at 0% RH” value in series [4] (0% RH) amounted to 5E). Form 2 at 0% RH. Also, the “VH-XRPD at high RH (>90%)” value in series [4] (>90% RH (92-93% RH recorded)) is given as “conversion toward the hydrated state; also recorded: Conversion to Form 3”. For the same molecule, in series [5] (0-90% RH), the “Hygroscopicity (GVS)” value is given as “hygroscopic”. Moreover, in series [5] (after exposure to 0-90% RH), the “XRPD post GVS (uptake 0-90% RH)” value was “mixture of Form 2 and Form 3; also recorded: Mixture of form 2 and 3”.

The record behind these values is patent US11708318B2, “Polymorphic forms of RAD1901-2HCL” (Radius Pharmaceuticals, Inc., priority 2017, dated 2023).
